Measurements: patent US20140088034A1, “NITRIC OXIDE/cGMP PATHWAY INHIBITION OF VLA-4 RELATED CELL ADHESION” (STC.UNM, priority 2011, published 2014)
Residues, ends and D or L forms follow the SMILES beside them.

Columns and labels:
VLA-4 [1] = experiment: Real-time flow cytometric binding of LDV-FITC probe (VLA-4 affinity change) on GPCR-transfected U937 cells; type: cell-based, human; settings: for effect on magnitude of LDV-FITC binding response, compound added prior to IL-8 activation: U937 CXCR2/IL-8RB; for effect on magnitude of LDV-FITC binding response, compound added prior to IL-8 activation / effect on magnitude of LDV-FITC binding response, compound added prior to SDF-1 activation: added at 0 time point, BAY 41-2272 100 μM; for effect on magnitude of LDV-FITC binding response, compound added prior to SDF-1 activation: U937 CXCR4; for reversibility of the decrease in LDV-FITC binding / effect on LDV-FITC binding, compound added after fMLFF activation: U937 non-desensitizing FPR mutant (ΔST), LDV-FITC 4 nM, fMLFF 100 nM; for effect on LDV-FITC binding, compound added after fMLFF activation: different concentrations
Method: Experiments were conducted as described under “Methods”, infra. A, LDV-FITC probe binding and dissociation on U937 cells stably transfected with the non-desensitizing mutant of FPR (ΔST) receptor plotted as mean channel fluorescence (MCF) versus time.
The experiment involved sequential addition of fluorescent LDV-FITC probe (4 nM, below saturation, added 2 min prior to addition of Gαi-coupled receptor ligand, fMLFF, 100 nM), and different concentrations of DEA-NONOate (nitric oxide donor) (arrows). Control cells were treated with vehicle. The MCF value corresponding to cell autofluorescence is indicated by the horizontal arrow. […] Curves are means of two independent determinations calculated on a point-by-point basis (n=2). B, LDV-FITC probe binding and dissociation on U937 cells stably transfected with wild type CXCR4 receptor plotted as mean channel fluorescence (MCF) versus time.
The experiment involved sequential addition of fluorescent LDV-FITC probe (4 nM), CXCL12/SDF-1 (12 nM), and DEA-NONOate (250 μM, nitric oxide donor) or vehicle (control) (arrows). Rapid and reversible binding of the probe reflects the VLA-4 affinity change. Curves are means of two independent determinations calculated on a point-by-point basis (n=2). SEM of mean, calculated on a point by point basis, indicated using error bars to show significance of the difference between treatment and control samples. C, LDV-FITC probe binding and dissociation on U937 cells stably transfected with wild type CXCR2/IL-8RB receptor plotted as mean channel fluorescence (MCF) versus time.
The experiment involved sequential addition of the fluorescent LDV-FITC probe (4 nM), CXCL8/IL-8 (20 nM), and DEA-NONOate (250 μM, nitric oxide donor) or vehicle (control) (arrows). This experiment is analogous to the one shown in panel B. One representative experiment of three experiments is shown. Curves are means of two independent determinations calculated on a point-by-point basis (n=2). D, LDV-FITC probe binding and dissociation on U937 cells stably transfected with wild type CXCR4 receptor plotted as mean channel fluorescence (MCF) versus time.
The experiment involved sequential addition of the DEA-NONOate (250 μM, nitric oxide donor) or vehicle (control) at the 0 time point, and the fluorescent LDV-FITC probe (4 nM), CXCL12/SDF-1 (12 nM) (arrows). Rapid and reversible binding of the probe reflects the VLA-4 affinity change. Excess unlabelled competitor LDV (1 μM) is added at the end of the experiment to determine the non-specific binding of the probe. Curves are means of two independent determinations calculated on a point-by-point basis (n=2). SEM, calculated on a point by point basis, is indicated using error bars to show the significance of the difference between treatment and control samples. E, LDV-FITC probe binding and dissociation on U937 cells stably transfected with wild type CXCR2/IL-8RB receptor plotted as mean channel fluorescence (MCF) versus time.
The experiment involved sequential addition of DEA-NONOate (250 μM, nitric oxide donor) or vehicle (control) at the 0 time point, and the fluorescent LDV-FITC probe (4 nM), CXCL8/IL-8 (20 nM) (arrows). Excess unlabelled competitor LDV (1 μM) added at the end of the experiment to determine the non-specific binding of the probe. This experiment is analogous to the one shown in panel D. One representative experiment of three experiments is shown. Curves are means of two independent determinations calculated on a point-by-point basis (n=2). […] Experiments shown in the different panels were performed using different instruments, and therefore MCF values are not identical. […]
LDV-FITC probe binding and dissociation on U937 cells stably transfected with the non-desensitizing mutant of FPR plotted as mean channel fluorescence (MCF) versus time. […]

VLA-4 [2] = biological target: VLA-4 (Homo sapiens, UniProt P05556+P13612); experiment: Kinetic dissociation rate (koff) analysis of LDV-FITC probe on U937 cells with non-desensitizing FPR mutant; type: cell-based; settings: U-937; U937 FPR ΔST; fMLFF 100 nM then BAY 41-2272 50 μM; LDV-FITC 25 nM, LDV block 2 μM; read-out: dissociation rate constant koff of LDV-FITC after fMLFF and BAY 41-2272
Method: The experiment involved sequential addition of BAY 41-2272 (100 μM, guanylyl cyclase activator) or vehicle (control) at the 0 time point, and the fluorescent LDV-FITC probe (4 nM), and CXCL8/IL-8 (20 nM) (arrows). Excess unlabelled competitor LDV (1 μM) added at the end of the experiment to determine the non-specific binding of the probe. This experiment is analogous to the one shown in panel B. One representative experiment of two experiments is shown. Curves are means of two independent determinations calculated on a point-by-point basis (n=2). […] D, Kinetic analysis of binding and dissociation of LDV-FITC probe on U937 cells stably transfected with the non-desensitizing mutant of FPR. Cells were sequentially treated with the LDV-FITC probe (25 nM, near saturation), the Gαi-coupled receptor ligand (fMLFF, 100 nM), BAY 41-2272 (guanylyl cyclase activator, 50 μM) (arrows). At time points indicated by arrows, cells were treated with excess unlabeled LDV containing small molecule (2 μM), and the dissociation of the fluorescent molecule was followed. Dissociation rate constants (koff) were obtained by fitting dissociation curves to a single exponential decay equation (as described in the text). Experiments shown in the different panels were performed using different instruments, and therefore MCF values are not identical. E, Dissociation rate values, obtained in experiments analogous to panel B, summarized as a bar graph showing mean and SEM (n=4). Colors of the dissociation curves in panel D and bars on panel E are matching. The difference between koffs for “resting” and “fMLFF activated”, and between “fMLFF activated” and “fMLFF activated and treated with BAY 41-2272” is statistically significant (P=0.0006<0.05) as calculated by one-way analysis of variance (ANOVA) using GraphPad Prism software. […]
Next, the regions of the ligand-binding curves corresponding to the dissociation of the LDV-FITC probe were fitted to a single exponential decay equation. […] The affinity state induced by guanylyl cyclase activator was quantitatively similar to the resting state before activation. […]

[3] = system: VLA-4/VCAM-1 dependent cell adhesion; experiment: Real-time cell aggregation between U937 FPR (ΔST) and VCAM-1-transfected B78H1 cells; type: cell-based, human; settings: U937 FPR ΔST + B78H1/VCAM-1; fMLFF 100 nM; DEA-NONOate 250 μM; LDV block 2 μM 6 min after mixing
Method: Real-time aggregation experiments were conducted as described under “Methods”, infra. U937/AST FPR stably transfected cells, which constitutively express VLA-4, were labeled with red fluorescent dye, and B78H1/VCAM-1 transfectants were stained with green fluorescent dye. […] Next, cells were mixed and real-time cell aggregation (red and green double positive events) was followed. To determine the level of VLA-4 dependent cell aggregation, 6 min after cell mixing, excess unlabelled VLA-4 specific ligand was added (arrow, LDV block, 2 μM).
Prior to the experiment, individual cell populations were stained with either of two fluorescent dyes (red and green). Next, the cell populations were mixed, and the appearance of double positive events, representing cellular aggregates, was followed in real-time by flow cytometry (see FIG. 1, 2, 3 in [55] for method details).
The cell suspension adhesion assay has been described previously. Briefly, U937/AST FPR stably transfected cells were labeled with red fluorescent PKH26GL dye, and B78H1/VCAM-1 transfectants were stained with green fluorescent PKH67GL dye (Sigma-Aldrich). Labeled cells were washed, resuspended in HEPES buffer supplemented with 0.1% HSA and stored on ice until used in assays. Control U937 cells were preincubated with the 1 μM LDV-containing small molecule for blocking adhesion. Prior to data acquisition, cells were warmed to 37° C. for 10 min separately and then mixed. During data acquisition, the samples were stirred with a 5×2-mm magnetic stir bar (Bel-Art Products, Pequannock, N.J.) at 300 rpm and kept at 37° C. For stimulation, cells were treated with appropriate GPCR ligands at saturating concentration (10 times or higher than Kd). In several experiments cells were treated sequentially with two different compounds. […] The percentage of aggregates was calculated as follows: % U937 cells in aggregates=number of aggregates/(number of aggregates+number of U937 singlets))×100. […]

[4] = DEA-NONOate 250 μM, CXCL8/IL-8 20 nM
[5] = DEA-NONOate 250 μM, CXCL12/SDF-1 12 nM

Chain of VLA-4 (Homo sapiens, UniProt P05556+P13612) (P13612 34-1032): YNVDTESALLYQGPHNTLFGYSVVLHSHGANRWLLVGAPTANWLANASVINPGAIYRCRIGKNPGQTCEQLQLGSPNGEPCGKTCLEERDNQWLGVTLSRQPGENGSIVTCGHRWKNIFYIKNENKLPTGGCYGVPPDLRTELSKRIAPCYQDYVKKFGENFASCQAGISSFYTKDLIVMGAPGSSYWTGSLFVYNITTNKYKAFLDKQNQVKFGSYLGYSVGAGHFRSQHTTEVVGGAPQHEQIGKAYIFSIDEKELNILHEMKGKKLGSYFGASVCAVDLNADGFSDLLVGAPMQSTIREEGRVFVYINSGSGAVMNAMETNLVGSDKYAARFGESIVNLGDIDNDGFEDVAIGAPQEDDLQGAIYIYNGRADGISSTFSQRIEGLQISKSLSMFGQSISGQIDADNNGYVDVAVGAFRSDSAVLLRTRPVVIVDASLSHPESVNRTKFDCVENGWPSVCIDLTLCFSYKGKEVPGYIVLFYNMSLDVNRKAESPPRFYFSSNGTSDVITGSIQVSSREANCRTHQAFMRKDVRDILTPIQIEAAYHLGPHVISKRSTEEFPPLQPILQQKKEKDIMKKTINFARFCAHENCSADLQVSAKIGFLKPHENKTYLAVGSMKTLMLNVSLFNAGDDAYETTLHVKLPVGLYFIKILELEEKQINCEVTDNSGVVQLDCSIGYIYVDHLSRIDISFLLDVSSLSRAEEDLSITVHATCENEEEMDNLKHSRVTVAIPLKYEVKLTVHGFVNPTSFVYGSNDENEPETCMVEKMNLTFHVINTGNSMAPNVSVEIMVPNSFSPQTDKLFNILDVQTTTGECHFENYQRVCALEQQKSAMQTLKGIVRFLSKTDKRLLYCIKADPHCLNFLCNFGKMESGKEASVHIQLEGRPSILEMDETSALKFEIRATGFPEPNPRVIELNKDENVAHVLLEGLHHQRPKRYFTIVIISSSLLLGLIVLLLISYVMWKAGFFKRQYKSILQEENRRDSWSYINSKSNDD
Chain of VLA-4 (Homo sapiens, UniProt P05556+P13612) (P05556 21-798): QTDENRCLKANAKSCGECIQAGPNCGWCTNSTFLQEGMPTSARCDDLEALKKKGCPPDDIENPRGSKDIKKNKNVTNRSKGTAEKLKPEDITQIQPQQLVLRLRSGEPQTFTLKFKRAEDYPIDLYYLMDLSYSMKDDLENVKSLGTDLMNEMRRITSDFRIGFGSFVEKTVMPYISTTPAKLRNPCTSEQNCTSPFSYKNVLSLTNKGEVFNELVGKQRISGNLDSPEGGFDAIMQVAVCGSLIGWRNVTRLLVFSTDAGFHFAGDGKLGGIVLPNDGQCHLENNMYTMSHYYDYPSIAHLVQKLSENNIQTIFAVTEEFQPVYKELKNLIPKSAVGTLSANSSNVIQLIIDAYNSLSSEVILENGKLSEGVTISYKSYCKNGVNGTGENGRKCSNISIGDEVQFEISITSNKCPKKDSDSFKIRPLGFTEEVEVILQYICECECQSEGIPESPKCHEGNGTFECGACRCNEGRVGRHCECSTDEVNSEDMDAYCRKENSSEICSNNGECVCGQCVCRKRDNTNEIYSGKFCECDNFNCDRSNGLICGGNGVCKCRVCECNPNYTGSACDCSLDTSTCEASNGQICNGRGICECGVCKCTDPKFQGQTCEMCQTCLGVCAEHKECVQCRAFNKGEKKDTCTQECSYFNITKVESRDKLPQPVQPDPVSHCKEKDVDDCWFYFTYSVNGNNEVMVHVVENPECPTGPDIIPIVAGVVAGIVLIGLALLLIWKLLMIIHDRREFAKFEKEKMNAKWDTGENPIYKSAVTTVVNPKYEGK

Row | Compound | effect on magnitude of LDV-FITC binding response, compound added prior to IL-8 activation (VLA-4 [1]; [4]) | effect on magnitude of LDV-FITC binding response, compound added prior to SDF-1 activation (VLA-4 [1]; [5]) | reversibility of the decrease in LDV-FITC binding (VLA-4 [1]) | effect on LDV-FITC binding, compound added after fMLFF activation (VLA-4 [1]) | koff (VLA-4 [2]) [s⁻¹] | effect on LDV-FITC binding, compound added after CXCL8/IL-8 activation (VLA-4 [1]; U937 wild type CXCR2/IL-8RB, CXCL8/IL-8 20 nM, DEA-NONOate 250 μM) | effect on LDV-FITC binding, compound added after CXCL12/SDF-1 activation (VLA-4 [1]; U937 wild type CXCR4, CXCL12/SDF-1 12 nM, DEA-NONOate 250 μM) | effect on VLA-4/VCAM-1 dependent cell aggregation (% U937 cells in aggregates) [3]
1 | Nc1nc(-c2nn(Cc3ccccc3F)c3ncccc23)ncc1C1CC1 [BAY 41-2272, 3-(4-Amino-5-cyclopropylpyrimidin-2-yl)-1-(2-fluorobenzyl)-1H-pyrazolo[3,4-b]pyridine] | decrease in the magnitude of the response | decrease in the magnitude of the response | partially reversible | significant decrease in LDV-FITC binding | ~0.036 | – | – | –
2 | CCN(CC)/[N+]([O-])=N/O [DEA-NONOate] | significant decrease in the magnitude of the response | significant decrease in the magnitude of the response | not reversible | rapid and dose-dependent decrease in the binding of the VLA-4 specific ligand | – | faster and more pronounced signal decrease | faster and more pronounced signal decrease | abolished fMLFF-dependent cellular aggregation
3 | Cc1ccccc1NC(=O)Nc1ccc(CC(=O)N[C@@H](CC(C)C)C(=O)N[C@@H](CC(=O)O)C(=O)N[C@H](C(=O)N2CCC[C@H]2C(=O)N[C@@H](C)C(=O)N[C@@H](C)C(=O)N[C@@H](CCCCN)C(=O)O)C(C)C)cc1 [LDV, 4-((N′-2-methylphenyl)ureido)-phenylacetyl-L-leucyl-L-aspartyl-L-valyl-L-prolyl-L-alanyl-L-alanyl-L-lysine] | – | – | – | – | – | – | – | rapid cellular disaggregation
4 | CCCC(=O)Nc1nc2c(ncn2C2OC3COP(=O)([O-])OC3C2OC(=O)CCC)c(=O)[nH]1.[Na+] (stereo not shown) [dbcGMP, N^2,2′-O-Dibutyrylguanosine 3′,5′-cyclic monophosphate] | – | – | reversible | dose-dependent decrease in the binding of the probe | – | – | – | –
5 | CSCC[C@H](NC=O)C(=O)N[C@@H](CC(C)C)C(=O)N[C@@H](Cc1ccccc1)C(=O)N[C@@H](Cc1ccccc1)C(=O)O [fMLFF, N-formyl-L-methionyl-L-leucyl-L-phenylalanyl-L-phenylalanine] (HELM PEPTIDE1{[O=C[*:2]].M.L.F.F}$$$$V2.0) | – | – | – | – | – | – | – | rapid increase in cell aggregation
